Calls of active or inactive are those of the source. No cut-off for these calls is given here.
How the values were obtained:
[1] = Cytotoxicity against mouse GL26 cells assessed as inhibition of cell growth incubated for 48 hrs by MTT assay; type: functional, cell-based; settings: GL26, 48 h
[2] = test system: GL26; test: Induction of apoptosis in mouse GL26 cells assessed as proteolytic cleavage of PARP1 incubated for 48 hrs by Western blot analysis; type: functional, cell-based; settings: dose 1.25-5 µM, DDE = dose-dependent effect
[3] = Toxicity in mouse bearing intracranial tumor assessed as median survival time at 50 mg/kg, ip for 10 days (Rvb= 13.8 days); type: organism-based; settings: in vivo, 240 h, time 10 day
[4] = Toxicity in mouse bearing intracranial tumor assessed as last day of survival at 25 mg/kg, ip in presence of clorgyline for 10 days (Rvb=16 days); type: organism-based; settings: in vivo, 240 h, time 10 day
[5] = Toxicity in mouse bearing intracranial tumor assessed as last day of survival at 50 mg/kg, ip in presence of clorgyline for 10 days (Rvb=16 days); type: organism-based; settings: in vivo, 240 h, time 10 day
[6] = Toxicity in mouse bearing intracranial tumor assessed as median survival time at 25 mg/kg, ip in presence of clorgyline for 10 days (Rvb=13.8 days); type: organism-based; settings: in vivo, 240 h, time 10 day
[7] = Toxicity in mouse bearing intracranial tumor assessed as median survival time at 50 mg/kg, ip in presence of clorgyline for 10 days (Rvb=13.8 days); type: organism-based; settings: in vivo, 240 h, time 10 day
[8] = target: T1, Amine oxidase [flavin-containing] A (Homo sapiens, UniProt P21397); test: Inhibition of MAO-A (unknown origin) expressed in mouse GL26 cells using 14C 5-hydroxytryptamine as substrate pre-incubated for 20 mins followed by substrate addition measured after 20 mins by liquid scintillation spectroscopy; type: cell-based
T1 sequence (P21397 whole entry): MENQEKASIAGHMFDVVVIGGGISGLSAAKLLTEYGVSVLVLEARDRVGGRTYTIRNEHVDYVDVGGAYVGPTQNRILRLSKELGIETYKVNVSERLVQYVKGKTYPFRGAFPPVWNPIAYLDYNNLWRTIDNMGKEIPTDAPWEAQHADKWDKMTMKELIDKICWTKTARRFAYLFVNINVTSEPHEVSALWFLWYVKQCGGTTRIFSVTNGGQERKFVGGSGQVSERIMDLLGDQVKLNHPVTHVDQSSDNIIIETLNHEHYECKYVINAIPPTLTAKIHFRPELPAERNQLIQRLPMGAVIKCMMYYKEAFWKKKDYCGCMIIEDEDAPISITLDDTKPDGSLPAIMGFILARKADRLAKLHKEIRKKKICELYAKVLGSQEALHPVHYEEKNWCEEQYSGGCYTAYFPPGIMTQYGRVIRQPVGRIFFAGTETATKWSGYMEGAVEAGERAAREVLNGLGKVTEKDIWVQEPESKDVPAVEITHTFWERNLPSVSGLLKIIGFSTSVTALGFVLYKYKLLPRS

[9] = target: Histone deacetylase 1 (Homo sapiens, UniProt Q13547); test: Inhibition of human HDAC1 (379 to 382 residues) using RHKKAc-AMC fluorogenic peptide as substrate by fluorescence assay
[10] = target: Histone deacetylase 2 (Homo sapiens, UniProt Q92769); test: Inhibition of human HDAC2 (379 to 382 residues) using RHKKAc-AMC fluorogenic peptide as substrate by fluorescence assay
[11] = target: T2, Protein deacetylase HDAC6 (Homo sapiens, UniProt Q9UBN7); test: Inhibition of human HDAC6 (379 to 382 residues) using RHKKAc fluorogenic peptide as substrate by fluorescence assay
T2 sequence (Q9UBN7 whole entry): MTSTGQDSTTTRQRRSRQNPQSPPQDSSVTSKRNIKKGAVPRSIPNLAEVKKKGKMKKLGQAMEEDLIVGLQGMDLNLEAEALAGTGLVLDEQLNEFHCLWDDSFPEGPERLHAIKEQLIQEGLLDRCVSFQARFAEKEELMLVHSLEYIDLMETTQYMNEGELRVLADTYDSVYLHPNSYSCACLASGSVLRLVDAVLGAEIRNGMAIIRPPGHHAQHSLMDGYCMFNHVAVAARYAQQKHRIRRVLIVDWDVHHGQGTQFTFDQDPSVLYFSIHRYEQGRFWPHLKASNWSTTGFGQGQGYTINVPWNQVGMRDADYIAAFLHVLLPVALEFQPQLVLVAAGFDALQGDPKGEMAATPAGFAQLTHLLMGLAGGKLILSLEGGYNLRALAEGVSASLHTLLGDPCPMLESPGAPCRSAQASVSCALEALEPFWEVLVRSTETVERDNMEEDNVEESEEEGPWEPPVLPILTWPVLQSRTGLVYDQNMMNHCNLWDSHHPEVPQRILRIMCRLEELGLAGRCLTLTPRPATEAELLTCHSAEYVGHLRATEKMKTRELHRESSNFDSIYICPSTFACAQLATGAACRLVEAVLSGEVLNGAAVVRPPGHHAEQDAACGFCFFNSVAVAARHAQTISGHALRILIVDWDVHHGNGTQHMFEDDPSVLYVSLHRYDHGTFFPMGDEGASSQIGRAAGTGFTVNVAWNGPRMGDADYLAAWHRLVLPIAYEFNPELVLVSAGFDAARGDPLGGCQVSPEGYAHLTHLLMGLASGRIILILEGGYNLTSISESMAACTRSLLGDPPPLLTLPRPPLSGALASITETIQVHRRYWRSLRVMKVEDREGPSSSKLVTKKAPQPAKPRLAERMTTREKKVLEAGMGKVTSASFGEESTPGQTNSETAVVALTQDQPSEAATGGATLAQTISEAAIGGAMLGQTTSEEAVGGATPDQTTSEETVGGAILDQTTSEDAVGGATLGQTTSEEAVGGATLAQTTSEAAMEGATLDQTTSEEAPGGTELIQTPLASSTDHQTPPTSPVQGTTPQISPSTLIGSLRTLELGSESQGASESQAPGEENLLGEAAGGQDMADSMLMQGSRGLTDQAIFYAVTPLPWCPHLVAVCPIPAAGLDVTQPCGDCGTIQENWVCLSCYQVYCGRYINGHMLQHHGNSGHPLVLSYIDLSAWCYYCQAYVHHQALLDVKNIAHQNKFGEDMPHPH

[12] = target: T3, Histone deacetylase 8 (Homo sapiens, UniProt Q9BY41); test: Inhibition of human HDAC8 (379 to 382 residues) using RHKKAcKAc-AMC fluorogenic peptide as substrate by fluorescence assay
T3 sequence (Q9BY41 whole entry): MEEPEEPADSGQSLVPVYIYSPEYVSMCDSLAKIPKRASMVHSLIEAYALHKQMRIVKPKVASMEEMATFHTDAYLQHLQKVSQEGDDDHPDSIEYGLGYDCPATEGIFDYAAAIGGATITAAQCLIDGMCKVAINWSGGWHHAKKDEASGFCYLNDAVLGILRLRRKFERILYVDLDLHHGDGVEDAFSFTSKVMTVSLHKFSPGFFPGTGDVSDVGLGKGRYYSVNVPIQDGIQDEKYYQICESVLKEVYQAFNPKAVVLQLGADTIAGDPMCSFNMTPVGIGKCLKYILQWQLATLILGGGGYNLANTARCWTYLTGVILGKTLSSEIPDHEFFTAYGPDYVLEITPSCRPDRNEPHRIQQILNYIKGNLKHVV

[13] = test system: U-251; test: cells; type: functional, cell-based; settings: Homo sapiens, U-251, 48 h
Description: Cytotoxicity against human TMZ-sensitive U251 cells assessed as inhibition of cell growth incubated for 48 hrs by MTT assay

[14] = test system: U-251; test: cells; type: functional, cell-based; settings: Homo sapiens, U-251, 48 h; remark: listed apart in the source
Description: Cytotoxicity against human TMZ-resistant U251 cells assessed as inhibition of cell growth incubated for 48 hrs by MTT assay

[15] = test system: U-251; test: Cytotoxicity against human U251 cells assessed as inhibition of cell growth incubated for 48 hrs by MTT assay; type: functional, cell-based; settings: DDE = dose-dependent effect
[16] = target: Lysine-specific histone demethylase 1A (Homo sapiens, UniProt O60341); test: Inhibition of human LSD1 assessed as demethylase activity of LSD1 using Histone H3(1-21)K4me2 peptide as substrate incubated for 30 mins followed by substrate addition by amplex red dye based HRP-coupled assay
[17] = test system: Mus musculus; test: In vivo inhibition of MAO-A in C57BL6 mouse xenografted with mouse GL26 cells as decrease in MAO activity in brain at 50 mg/kg, ip by radiometric analysis; type: functional, organism-based
[18] = test system: GL26; test: Antitumor activity against mouse GL26 cells implanted in C57BL6 mouse assessed as reduction in tumor size at 50 mg/kg, ip daily measured for 10 days by bioluminescence assay; type: functional, organism-based; settings: time 10.0 day
[19] = Toxicity in C57BL6 mouse xenografted with mouse GL26 cells as assessed as last day of survival at 50 mg/kg, ip for 14 days treatment started at 5 days post-infection (Rvb=14 days); type: organism-based; settings: in vivo, 336 h, time 14 day
[20] = (§1) In vivo inhibition of MAO-A in mouse xenografted with mouse GL26 assessed as decrease in MAO activity in tumor at 50 mg/kg by radiometric analysis; type: functional; set-up: scale not given: the % may be the effect or the level left
[21] = test system: Mus musculus; test: In vivo inhibition of MAO-A in mouse xenografted with mouse GL26 assessed as decrease in MAO activity in brain at 25 mg/kg, ip administered for 10 days by bioluminescence assay; type: functional, organism-based; settings: time 10.0 day
[22] = test system: Mus musculus; test: In vivo inhibition of MAO-A in mouse xenografted with mouse GL26 assessed as decrease in MAO activity in tumor at 25 mg/kg, ip administered for 10 days by bioluminescence assay; type: functional, organism-based; settings: time 10.0 day
[23] = Toxicity in mouse bearing intracranial tumor assessed as last day of survival at 50 mg/kg,ip for 10 days (Rvb=16 days); type: organism-based; settings: in vivo, 240 h, time 10 day
[24] = Toxicity in mouse bearing intracranial tumor assessed as assessed as median survival time at 50 mg/kg, ip for 14 days treatment started at 5 days post-infection (Rvb=12.8 days); type: organism-based; settings: in vivo, 336 h, time 14 day
[25] = Toxicity in mouse bearing intracranial tumor assessed as assessed as median survival time at 25 mg/kg, ip treatment started at 7 dpi (Rvb=18.25 days); type: organism-based; settings: in vivo, 438 h
[26] = Toxicity in mouse bearing intracranial tumor assessed as last day of survival at 25 mg/kg, ip treatment started at 7 dpi (Rvb=19 days); type: organism-based; settings: in vivo, 456 h
[27] = test system: Mus musculus; test: as §1; type: functional

Histone deacetylase 2, sequence (Q92769 whole entry, the tested form may be a part): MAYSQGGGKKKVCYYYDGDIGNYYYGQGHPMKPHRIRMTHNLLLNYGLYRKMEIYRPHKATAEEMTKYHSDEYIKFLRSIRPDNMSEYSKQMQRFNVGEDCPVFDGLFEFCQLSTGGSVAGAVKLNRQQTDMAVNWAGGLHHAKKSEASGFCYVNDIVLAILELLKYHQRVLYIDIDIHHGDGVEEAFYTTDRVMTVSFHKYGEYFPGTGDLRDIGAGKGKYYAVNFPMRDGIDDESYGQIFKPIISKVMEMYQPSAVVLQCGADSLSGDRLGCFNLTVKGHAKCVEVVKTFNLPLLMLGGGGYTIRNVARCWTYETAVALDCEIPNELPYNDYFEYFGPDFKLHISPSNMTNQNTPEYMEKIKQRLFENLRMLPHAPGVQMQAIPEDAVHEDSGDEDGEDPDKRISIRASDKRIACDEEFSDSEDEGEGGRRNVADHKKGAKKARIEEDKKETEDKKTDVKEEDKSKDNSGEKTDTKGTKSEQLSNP
Histone deacetylase 1, sequence (Q13547 whole entry, the tested form may be a part): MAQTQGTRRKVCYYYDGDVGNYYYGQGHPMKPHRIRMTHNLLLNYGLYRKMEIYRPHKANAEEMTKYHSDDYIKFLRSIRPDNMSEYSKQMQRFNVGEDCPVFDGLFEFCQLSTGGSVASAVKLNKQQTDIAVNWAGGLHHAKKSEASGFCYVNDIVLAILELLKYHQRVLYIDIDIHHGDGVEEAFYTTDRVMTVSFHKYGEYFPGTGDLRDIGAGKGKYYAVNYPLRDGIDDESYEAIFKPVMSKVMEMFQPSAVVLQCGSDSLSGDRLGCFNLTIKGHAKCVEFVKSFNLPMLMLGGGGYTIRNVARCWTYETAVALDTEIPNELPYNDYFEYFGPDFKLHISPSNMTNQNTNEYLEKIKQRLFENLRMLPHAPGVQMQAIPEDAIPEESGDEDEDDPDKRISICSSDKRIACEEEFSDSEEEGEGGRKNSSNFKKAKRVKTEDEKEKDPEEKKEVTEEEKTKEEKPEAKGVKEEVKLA

Row | SMILES | IC50 [1] [nM] | Survival [3] [days] | IC50 [8] [nM] | IC50 [9] [nM] | IC50 [10] [nM] | IC50 [11] [nM] | IC50 [12] [nM] | IC50 [13] [nM] | IC50 [14] [nM] | also measured
1 | O=C(CCCCCCC(=O)Nc1ccccc1)NO [VORINOSTAT] | 2200 | 13.8 | – | – | – | – | – | – | – | Activity [2]: Dde; Survival [4]: 14 days; Survival [5]: 18 days; MST [6]: 13.8 days; MST [7]: 14.4 days
2 | C#CCN(C)CCCOc1cc(NC(=O)CCCCCCC(=O)NO)c(Cl)cc1Cl | 74000 | – | 430 | 3290 | 6680 | 60 | 1780 | 50600 | 8670 | –
3 | C#CCN(C)CCCOc1cc(NCc2ccc(C(=O)NO)cc2)ccc1Cl | 2410 | 16.8 | 0.4 | 2510 | 4750 | 10 | 1170 | 10100 | 7120 | Activity [15]: Dde; EC50 [16]: 6000 nM; Activity [17]: Active; Activity [18]: Active; Survival [19]: 18 days; Activity [20]: 90%; Activity [21]: Active; Activity [22]: Active; Survival [23]: 20 days; MST [24]: 14.25 days; MST [25]: 19.75 days; Survival [26]: 23 days
4 | C#CCN(C)CCCOc1cc(NC(=O)CCCCCCCC(=O)NO)ccc1Cl | 19300 | – | 20 | 2310 | 4180 | 80 | 1120 | 11500 | 4780 | –
5 | C#CCN(C)CCCOc1cc(NC(=O)CCCCCCC(=O)NO)ccc1Cl | 1150 | – | 3250 | 30 | 150 | 10 | 50 | 120 | 600 | –
6 | C#CCN(C)CCCOc1cccc(NC(=O)CCCCCCC(=O)NO)c1Cl | 1740 | – | 23300 | 890 | 3210 | 90 | 1470 | 5820 | 4090 | –
7 | C#CCN(C)CCCOc1cc(NC(=O)CCCCCCCCC(=O)NO)ccc1Cl | 1040 | 14.8 | < 0.1 | 1420 | 3630 | 160 | 2480 | 33200 | 16200 | Activity [17]: Active; Activity [18]: Active; Survival [19]: 16 days; Activity [27]: Active; Activity [21]: Active; Activity [22]: Active; MST [24]: 14.5 days; MST [25]: 18 days; Survival [26]: 21 days

Source: ChEMBL document CHEMBL5154693, “N-Methylpropargylamine-Conjugated Hydroxamic Acids as Dual Inhibitors of Monoamine Oxidase A and Histone Deacetylase for Glioma Treatment” (J Med Chem, 2022)
